Measurements as given in patent US11980689B2 (AVALYN PHARMA INC., priority 2013, dated 2024).
Entries after “also recorded” stand apart in the source; their conditions may differ.

Columns and labels:
chelation of iron(III) = format: physicochemical
chelation of magnesium = format: physicochemical
[1] = biological target: epidermal growth factor (EGF) receptor intracellular domain (Homo sapiens, UniProt P00533); details: purified enzymes; cited from earlier work
VEGF-R1 = VEGF-R1 (Homo sapiens, UniProt P17948); details: purified enzymes; cited from earlier work
VEGF-R2 = VEGF-R2 (Homo sapiens, UniProt P35968); details: purified enzymes; cited from earlier work
[2] = in vivo
[3] = biological target: fibroblast growth factor receptor 1 (FGF-R1) (Homo sapiens, UniProt P11362); details: purified enzymes; cited from earlier work
TIE-2 [TEK] = TIE-2 [TEK] (Homo sapiens, UniProt Q02763); details: purified enzymes; cited from earlier work
Sequence of TIE-2 [TEK] (Q02763 23-1124): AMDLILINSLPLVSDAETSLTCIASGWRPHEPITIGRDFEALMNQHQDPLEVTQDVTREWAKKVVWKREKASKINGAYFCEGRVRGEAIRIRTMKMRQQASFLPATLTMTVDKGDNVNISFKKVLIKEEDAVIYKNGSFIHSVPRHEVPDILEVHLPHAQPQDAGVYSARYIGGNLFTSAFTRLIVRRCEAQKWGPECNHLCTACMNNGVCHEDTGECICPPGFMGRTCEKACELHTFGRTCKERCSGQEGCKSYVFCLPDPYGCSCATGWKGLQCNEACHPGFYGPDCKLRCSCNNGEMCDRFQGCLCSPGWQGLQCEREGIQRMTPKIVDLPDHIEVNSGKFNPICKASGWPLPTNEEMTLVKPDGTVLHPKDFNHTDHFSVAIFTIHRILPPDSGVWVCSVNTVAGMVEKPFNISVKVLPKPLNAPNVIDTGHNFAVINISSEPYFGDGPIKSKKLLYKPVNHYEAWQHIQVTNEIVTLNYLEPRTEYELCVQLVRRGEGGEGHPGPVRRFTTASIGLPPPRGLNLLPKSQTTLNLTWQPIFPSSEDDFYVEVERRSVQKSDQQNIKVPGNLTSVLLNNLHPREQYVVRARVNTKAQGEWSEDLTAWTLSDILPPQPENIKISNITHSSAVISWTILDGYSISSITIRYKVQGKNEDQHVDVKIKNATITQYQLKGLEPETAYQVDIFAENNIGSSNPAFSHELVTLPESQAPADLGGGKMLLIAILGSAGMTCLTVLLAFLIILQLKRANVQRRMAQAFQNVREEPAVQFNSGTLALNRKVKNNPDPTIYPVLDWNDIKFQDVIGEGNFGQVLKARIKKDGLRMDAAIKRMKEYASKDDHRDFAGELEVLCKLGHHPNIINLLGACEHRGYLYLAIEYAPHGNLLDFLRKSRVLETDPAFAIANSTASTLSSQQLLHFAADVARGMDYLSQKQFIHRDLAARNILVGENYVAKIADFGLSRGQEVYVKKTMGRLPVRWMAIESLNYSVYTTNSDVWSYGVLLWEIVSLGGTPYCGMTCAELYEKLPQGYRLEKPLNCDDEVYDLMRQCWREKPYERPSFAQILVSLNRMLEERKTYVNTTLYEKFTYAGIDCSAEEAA

c-MET = c-MET (Homo sapiens, UniProt P08581); details: purified enzymes; cited from earlier work
Sequence of c-MET (P08581 25-1390): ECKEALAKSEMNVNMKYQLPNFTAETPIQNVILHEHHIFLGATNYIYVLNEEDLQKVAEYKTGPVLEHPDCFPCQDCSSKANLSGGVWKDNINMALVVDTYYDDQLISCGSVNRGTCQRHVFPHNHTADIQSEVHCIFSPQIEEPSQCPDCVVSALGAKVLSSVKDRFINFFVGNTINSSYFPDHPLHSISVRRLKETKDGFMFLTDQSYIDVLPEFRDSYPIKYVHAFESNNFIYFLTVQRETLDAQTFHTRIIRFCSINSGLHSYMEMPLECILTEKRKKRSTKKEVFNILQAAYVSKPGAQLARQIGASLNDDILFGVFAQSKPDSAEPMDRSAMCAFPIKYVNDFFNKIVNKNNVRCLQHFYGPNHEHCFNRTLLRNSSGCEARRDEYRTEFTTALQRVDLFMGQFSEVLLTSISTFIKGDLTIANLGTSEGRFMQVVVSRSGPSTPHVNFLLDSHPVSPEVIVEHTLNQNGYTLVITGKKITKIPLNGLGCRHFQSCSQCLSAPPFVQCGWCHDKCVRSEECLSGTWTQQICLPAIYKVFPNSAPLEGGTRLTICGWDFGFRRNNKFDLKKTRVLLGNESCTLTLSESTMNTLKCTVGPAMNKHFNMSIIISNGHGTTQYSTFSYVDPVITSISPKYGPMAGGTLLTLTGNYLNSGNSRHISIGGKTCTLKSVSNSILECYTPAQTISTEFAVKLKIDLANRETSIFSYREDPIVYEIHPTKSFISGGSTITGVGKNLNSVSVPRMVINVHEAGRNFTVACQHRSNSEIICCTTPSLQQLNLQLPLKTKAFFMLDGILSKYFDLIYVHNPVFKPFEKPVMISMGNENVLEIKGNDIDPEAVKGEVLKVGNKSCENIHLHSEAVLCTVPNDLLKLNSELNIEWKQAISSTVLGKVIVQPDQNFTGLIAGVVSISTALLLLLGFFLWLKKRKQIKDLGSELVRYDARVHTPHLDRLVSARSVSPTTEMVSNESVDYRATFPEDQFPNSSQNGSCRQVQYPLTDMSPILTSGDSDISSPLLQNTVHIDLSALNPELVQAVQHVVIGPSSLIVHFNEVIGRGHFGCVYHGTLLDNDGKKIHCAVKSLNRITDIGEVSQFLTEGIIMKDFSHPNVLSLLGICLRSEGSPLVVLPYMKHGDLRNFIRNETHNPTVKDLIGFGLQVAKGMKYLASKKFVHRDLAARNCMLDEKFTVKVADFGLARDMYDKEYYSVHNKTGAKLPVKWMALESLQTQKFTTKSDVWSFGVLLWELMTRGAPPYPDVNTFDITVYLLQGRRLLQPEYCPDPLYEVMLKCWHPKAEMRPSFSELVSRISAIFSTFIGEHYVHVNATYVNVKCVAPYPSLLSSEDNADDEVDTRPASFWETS

KIT receptor = details: cited from earlier work
[4] = tested on: committed progenitor cells from patients with CML; details: cited from earlier work
[5] = tested on: KIT with mutations affecting the activation loop; details: cited from earlier work
PDGFR-α = PDGFR-α (Homo sapiens, UniProt P16234); details: cellular studies; cited from earlier work
Sequence of PDGFR-α (P16234 24-1089, species assumed): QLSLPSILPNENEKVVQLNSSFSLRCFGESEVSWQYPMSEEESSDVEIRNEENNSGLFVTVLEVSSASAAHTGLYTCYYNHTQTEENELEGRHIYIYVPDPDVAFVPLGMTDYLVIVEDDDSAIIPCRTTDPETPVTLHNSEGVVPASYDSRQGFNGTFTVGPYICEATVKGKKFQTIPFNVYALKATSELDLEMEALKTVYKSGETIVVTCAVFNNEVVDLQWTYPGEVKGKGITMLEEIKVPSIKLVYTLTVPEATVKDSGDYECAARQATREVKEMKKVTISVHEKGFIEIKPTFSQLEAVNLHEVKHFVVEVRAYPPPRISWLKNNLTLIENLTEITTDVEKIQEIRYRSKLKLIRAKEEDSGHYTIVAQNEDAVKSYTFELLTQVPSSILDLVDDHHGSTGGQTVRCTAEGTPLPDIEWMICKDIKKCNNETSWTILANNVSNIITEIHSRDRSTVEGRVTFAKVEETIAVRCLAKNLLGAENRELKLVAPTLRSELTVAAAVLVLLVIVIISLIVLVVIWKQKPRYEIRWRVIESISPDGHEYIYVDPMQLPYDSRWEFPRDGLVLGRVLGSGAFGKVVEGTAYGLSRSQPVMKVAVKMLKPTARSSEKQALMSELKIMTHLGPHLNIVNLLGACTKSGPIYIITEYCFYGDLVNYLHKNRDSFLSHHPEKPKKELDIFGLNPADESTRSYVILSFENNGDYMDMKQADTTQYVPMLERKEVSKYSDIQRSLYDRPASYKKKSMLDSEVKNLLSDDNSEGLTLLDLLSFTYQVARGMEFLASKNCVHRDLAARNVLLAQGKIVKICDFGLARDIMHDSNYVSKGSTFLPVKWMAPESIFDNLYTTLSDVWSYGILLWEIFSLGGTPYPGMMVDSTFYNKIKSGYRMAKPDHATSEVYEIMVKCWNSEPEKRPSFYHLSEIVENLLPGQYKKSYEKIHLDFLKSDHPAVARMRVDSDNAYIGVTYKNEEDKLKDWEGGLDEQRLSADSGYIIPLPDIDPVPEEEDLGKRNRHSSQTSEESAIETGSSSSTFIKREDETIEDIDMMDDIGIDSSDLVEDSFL

PDGFR-β = PDGFR-β (Homo sapiens, UniProt P09619); details: cellular studies; cited from earlier work
TEL-PDGFRβ = biological target: T1, TEL-PDGFRβ (Homo sapiens, UniProt P09619); details: mouse, in vivo; cited from earlier work
T1 construct: host or cells: transgenic mice; the other entry of the earlier key: ETV6 (P41212, Transcription factor ETV6)
T1 sequence (P09619 554-1106 limits assumed): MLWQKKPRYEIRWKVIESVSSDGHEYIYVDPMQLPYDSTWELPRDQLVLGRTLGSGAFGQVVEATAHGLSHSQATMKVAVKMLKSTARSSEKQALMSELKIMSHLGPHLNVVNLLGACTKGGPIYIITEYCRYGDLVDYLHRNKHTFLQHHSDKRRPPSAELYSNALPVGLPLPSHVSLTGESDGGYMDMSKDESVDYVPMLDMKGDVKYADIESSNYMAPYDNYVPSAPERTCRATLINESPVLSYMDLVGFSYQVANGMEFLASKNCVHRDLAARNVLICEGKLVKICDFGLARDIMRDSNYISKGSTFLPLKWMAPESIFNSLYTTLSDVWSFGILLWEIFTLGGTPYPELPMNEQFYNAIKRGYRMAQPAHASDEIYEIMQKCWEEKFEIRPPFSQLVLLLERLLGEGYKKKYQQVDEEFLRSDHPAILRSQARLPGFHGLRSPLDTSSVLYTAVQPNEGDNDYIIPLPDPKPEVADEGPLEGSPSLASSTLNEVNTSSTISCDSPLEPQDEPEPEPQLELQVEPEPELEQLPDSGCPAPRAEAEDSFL

[6] = tested on: bleomycin-induced pulmonary fibrosis; details: cited from earlier work
[7] = tested on: radiation-induced lung fibrosis; details: mouse, in vivo; cited from earlier work
liver fibrosis = details: cited from earlier work
heavy metal challenge = details: oral; cited from earlier work
[8] = tested on: kidney fibrosis following diabetic challenge; details: oral; cited from earlier work
renal fibrosis = details: rat, in vivo; cited from earlier work
[9] = Sprague-Dawley, rat, in vivo, po, 5.6 mg/kg
[10] = tested on: doxorubicin-induced toxicity (heart and kidney); details: mortality, abdominal fluid, cardiac and renal lesions; cited from earlier work
cardiac fibrosis = details: rat, in vivo; cited from earlier work
fibrosis = details: rat, in vivo; cited from earlier work
[11] = tested on: dimethylnitrosamine-induced hepatic fibrosis; details: cited from earlier work
[12] = tested on: Hepatitis C viral-related liver disease; details: oral; cited from earlier work
in vivo = details: Sprague-Dawley, rat
[13] = tested on: A10 rat aorta smooth muscle cells; details: cited from earlier work
CML = details: cited from earlier work
[14] = tested on: KIT with mutations in the juxtamembrane domain-coding region; details: cited from earlier work
[15] = tested on: Alpha-1 glycoprotein (AGP); details: cited from earlier work
kit in H526 cells = kit in H526 cells (Homo sapiens, UniProt P10721); details: pretreatment of H526 cells; cited from earlier work
c-kit = c-kit (Homo sapiens, UniProt P10721); details: kinase activity at 5 μM; cited from earlier work
IPF = details: cited from earlier work
lung cancer = details: cited from earlier work
JAK2V617F = JAK2V617F (Homo sapiens, UniProt O60674, V617F); details: cited from earlier work
CYP3A4 = CYP3A4 (Homo sapiens, UniProt P08684); details: cited from earlier work
p110-γ and p110-δ = details: cited from earlier work
p110a = p110a (Homo sapiens, UniProt P42336); details: cited from earlier work
PI3K = details: cited from earlier work
mTOR = mTOR (Homo sapiens, UniProt P42345); details: cited from earlier work
[16] = single- and repeat-dosing; cited from earlier work
breast cancer stem cells = details: mouse, in vivo; cited from earlier work

Sequence of epidermal growth factor (EGF) receptor intracellular domain (P00533 669-1210 limits assumed): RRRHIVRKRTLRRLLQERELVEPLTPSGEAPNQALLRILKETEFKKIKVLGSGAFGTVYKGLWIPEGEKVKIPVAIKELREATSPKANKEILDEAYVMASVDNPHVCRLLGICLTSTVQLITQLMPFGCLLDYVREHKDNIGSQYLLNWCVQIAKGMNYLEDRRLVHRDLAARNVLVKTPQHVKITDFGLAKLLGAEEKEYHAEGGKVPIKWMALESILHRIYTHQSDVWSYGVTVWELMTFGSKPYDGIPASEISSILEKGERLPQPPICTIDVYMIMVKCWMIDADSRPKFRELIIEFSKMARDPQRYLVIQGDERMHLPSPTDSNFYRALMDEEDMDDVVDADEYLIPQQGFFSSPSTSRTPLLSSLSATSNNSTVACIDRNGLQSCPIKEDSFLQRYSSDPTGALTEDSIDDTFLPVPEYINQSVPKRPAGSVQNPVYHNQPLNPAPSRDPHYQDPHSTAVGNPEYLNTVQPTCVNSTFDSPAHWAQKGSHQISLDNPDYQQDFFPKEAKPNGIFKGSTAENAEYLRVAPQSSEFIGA

Cc1ccc(NC(=O)c2ccc(CN3CCN(C)CC3)cc2)cc1Nc1nccc(-c2cccnc2)n1 [imatinib, 4-[(4-methylpiperazin-1-yl)methyl]-N-(4-methyl-3-{[4-(pyridin-3-yl)pyrimidin-2-yl]amino}phenyl)benzamide]
imatinib molecules per iron(III) ion (chelation of iron(III)): three | imatinib molecules to one magnesium ion (chelation of magnesium): two | inhibition of EGF receptor intracellular domain [1]: did not inhibit | inhibition of kinase activity (VEGF-R1): weak or no inhibition | inhibition of kinase activity (VEGF-R2): weak or no inhibition | lung-surface cations [2]: depletion of essential lung-surface cations | inhibition of kinase activity [3]: weak or no inhibition | inhibition of kinase activity (TIE-2 [TEK]): weak or no inhibition | inhibition of kinase activity (c-MET): weak or no inhibition | KIT autophosphorylation (KIT receptor; cell line from a GIST patient with an activating Kit mutation): suppress | autophosphorylation of the KIT receptor (KIT receptor; upon binding of stem-cell factor (SCF)): potently inhibited; also recorded: blocks | colony formation [4]: selective inhibition | sensitivity of KIT mutants [5]: resistant | receptor inhibition (PDGFR-α): potent inhibition | receptor inhibition (PDGFR-β): potent inhibition | survival of the animals (TEL-PDGFRβ): prolonged survival | tumor formation (TEL-PDGFRβ): inhibited tumor formation | development of pulmonary fibrosis, early treatment ([6]; Days 0 to 15): significantly prevented | development of pulmonary fibrosis, late treatment ([6]; Days 15 to 28): did not | development of pulmonary fibrosis ([6]; mouse, in vivo): inhibited the development of pulmonary fibrosis | effect on lung fibrosis [7]: antifibrotic effects | inhibition of liver fibrosis, early treatment (liver fibrosis; Days 0 to 21): effective | inhibition of liver fibrosis, late treatment (liver fibrosis; Days 22 to 35): not late | effect against heavy metal challenge (heavy metal challenge): protective effect | effect on fibrosis following diabetic challenge [8]: fibrosis reversal | action in renal fibrosis (renal fibrosis): antifibrotic action | Lung AUC [9]: 64.1 mg·h/kg | Lung Cmax [9]: 13.0 µg/g | severity of doxorubicin-induced toxicity [10]: reduced the severity | fibrosis (cardiac fibrosis): reversed and prevented fibrosis | fibrosis (fibrosis): reversal of fibrosis | mRNA for type I collagen and transforming growth factor-beta in the liver ([11]; in vivo): suppressed | effect against hepatic fibrosis ([11]; oral): protective effect | hepatic hydroxyproline levels ([11]; oral): reduced | fibrosis and quality of life [12]: decreased fibrosis and improved quality of life | AUC (in vivo; inhaled or intranasal, 1 mg/kg): 40 ng·h/mL | Cmax (in vivo; inhaled or intranasal, 1 mg/kg): 20 ng/mL | AUC (in vivo; po, 5.6 mg/kg): 4900 ng·h/mL | Cmax (in vivo; po, 5.6 mg/kg): 1100 ng/mL | serum-induced growth [13]: did not affect | patients achieving a complete haematological response (CML; chronic-phase CML, doses of 300 mg or higher): 98% | maximal tolerated dose (CML; oral 25 to 1,000 mg per day): no maximal tolerated dose was identified | inhibition of KIT kinase activity [14]: effective | binding by AGP [15]: high affinity | SCF-mediated kit activation (kit in H526 cells): inhibited | tyrosine phosphorylation and in vitro kinase activity of c-kit (c-kit): dose-dependent inhibition | secondary outcome parameters (IPF; DICO, change in PVC, 6-minute walk test): no benefit | incidence of AE-related drop-outs (IPF; dose reduction 600 mg to 400 mg daily allowed): 22% | primary outcome, time to disease progression (IPF; in vivo): no benefit

C#Cc1cccc(Nc2ncnc3cc(OCCOC)c(OCCOC)cc23)c1 [Erlotinib]
response rate (lung cancer; EGFR mutation positive patients): approximately 60% | time to resistance from the start of treatment (lung cancer; human, in vivo): 8-12 months | inhibition of JAK2V617F activity (JAK2V617F): potent inhibitor | metabolism (CYP3A4): mainly metabolized

Nc1nc(N)c2nc(-c3cccc(O)c3)c(-c3cccc(O)c3)nc2n1 [TG100-115]
better potency than against the other isoforms (p110-γ and p110-δ): 5-10 fold

FC(F)c1nc2ccccc2n1-c1nc(N2CCOCC2)nc(N2CCOCC2)n1 [ZSTK474]
inhibition (p110a): potent inhibitor

Cc1c(CN2CCN(S(C)(=O)=O)CC2)sc2c(N3CCOCC3)nc(-c3cnc(N)nc3)nc12 [GNE-477]
IC50 (mTOR): 21 nM

O=C1NC(=O)/C(=C/c2ccc3nccc(-c4ccncc4)c3c2)S1 [GSK1059615]
exposure [16]: lack of sufficient exposure

CC[C@@H](C(=O)[C@@H](C)[C@@H](O)[C@H](C)[C@@H]1O[C@@H]([C@@H](CC)C(=O)O)CC[C@@H]1C)[C@H]1O[C@]2(C=C[C@@H](O)[C@]3(CC[C@@](C)([C@H]4CC[C@](O)(CC)[C@H](C)O4)O3)O2)[C@H](C)C[C@@H]1C [Salinomycin]
effectiveness relative to paclitaxel (breast cancer stem cells): at least 100 times
